Here are results for seven molecules from US20230149732A1, “COMBINED NITRITE AND LIGHT TREATMENT TO PREVENT DEVICE THROMBOSIS” (Wake Forest University Health Sciences, priority 2021, published 2023).

One test has as its system platelet activation. The experiment in a line: Inhibition of platelet activation, with or without RBCs (flow cytometry). The settings on record: for effect on nitrite-mediated inhibition of platelet activation by RBCs: NO scavenger or RBC surface thiol blocker added. The format is cell-based. The source says:
This disclosure also teaches that far-red and near infrared light dramatically enhance nitrite bioactivation by RBCs. Far-red light (about 600-750 nm) and near infrared light (about 700-1400 nm) have been used clinically for improved wound healing, tissue generation, reduction of inflammation, and increasing cerebral blood flow to improve cognition. The mechanism for these actions has been attributed generally to increased blood flow, tissue oxygenation, and angiogenesis secondary to improved mitochondrial function attributed to cytochrome c oxidase redox state and function. However, it was not clear how improvement in cytochrome c oxidation state could account for increased blood flow and other effects of infrared/far-red light. […] The data shown in FIG. 2 strongly supports this premise (note scales). Previous work using inhibition of platelet activation as a measure of nitrite bioactivation has shown that (i) RBCs are necessary for nitrite-mediated inhibition of platelet activation (while other NO donors' ability to inhibit platelet activation is blunted by the presence of RBCs), (ii) this action is abrogated by an NO scavenger, (iii) this action is achieved with plasma levels of nitrite easily attained through dietary nitrate interventions, and (iv) this action involves RBC surface thiols. […] This is attributed to accumulating steady state NO species on the surface of the RBCs. The effects of far-red light without nitrite treatment are small and variable, perhaps reflecting small amounts of nitrite present at steady state and varying between individuals due to diet and other factors.
Nitrite addition to activated platelets in the absence of RBCs has no effect (FIG. 2A—note scale is expanded). […] This interaction is depicted in FIG. 1. It has been shown that Hb is the primary erythrocytic nitrite reductase and that nitrite bioactivation by RBCs involves NO. […] Nitrite is the best suited NO donor for treating thrombosis as it requires the presence of RBCs to work while others efficacy is blunted by RBCs (via the reaction described in Equation 2).
where the ferric hemin reversibly binds NO, GSH reduces the hemin and forms a thiyl radical which then reacts with NO, similar to a mechanism proposed for DNIC formation. The formation of the thiyl radical is supported by lower GSNO yield when the thiyl radical trap 5,5-dimethyl-1-pyrroline N-oxide (DMPO) is added (FIG. 4D). Thus, this system of hemin, NO and thiol (all present in the RBC after nitrite addition) yield both species of interest: nitrosothiols and heme-nitrosyls (which can bind to a surface thiol). Studies using RBCs. […] This inhibition was abrogated by pre-treatment with the thiol binding agent N-ethyl maleimide (NEM) (FIG. 5).
(In general: In flow cytometry, cells or beads pass a laser one at a time.)

A further test has as its target oxygenated Hb (OxyHb) (Homo sapiens, UniProt P68871+P69905). Conditions: NO + HbO2; cited from earlier work.
The next test relates to platelet adhesion. The settings on record: dual treatment: nitrite plus far-red light. An excerpt:
(§1) Also disclosed herein is a mechanism though which […] potentiates the anti-thrombotic effects of far-red light. […] The effects of combining far-red light and nitrite in inhibiting several different measures of clotting using different agonists are disclosed herein.

In the next test the test system is clotting in blood. Conditions: TEG, RBCs present. As for the experimental part:
(§2) The effects of nitrite and light on reducing clotting in blood were conducted by comparing sham, light alone, nitrite alone and the combination.

The test system of a further test is clotting. How it is done:
as §1, §2

Test [1] relates to device thrombosis in extracorporeal circuit.
Source text: Two Mito MD LED sources were employed with the tubing sandwiched in between. The power of the LEDs is reported as 100 mW/cm^2 at 6 inches from the device and we measured 35 mW/cm^2 at this distance and 230 mW/cm^2 directly at the surface. […] The system was also maintained at the desired temperature using a circulating water bath attached to the oxygenator representative of use conditions. The blood was deoxygenated by flowing nitrogen through the oxygenator to mimic venous blood from a real patient and hemoglobin saturation was about 70% or so, as tested using absorption spectroscopy and our integrating sphere detector for turbid samples.
Disclosed herein are outcome measures to test the efficacy of the device, including: • (1) Patency of the device. Whether enough clotting will occur to impede flow enough so that the experiment needs to be stopped before six hours of testing. The time to stopping was recorded. • (2) Pressure as a function of time. The pressure in the circuit was recorded every 15 minutes with higher pressures indicating occlusive clotting. • (3) Visual inspection for clotting. Tubing was examined thoroughly every 15 minutes with flashlights and photographs were taken to record the size and number of visual clots. • (4) Blood aliquots were collected every 15 minutes to measure oxygenation state of hemoglobin (so the nitrogen flow can be adjusted). A spectrometer was used with an integrating sphere that collected scattered light to get true absorption of turbid samples. […] RBCS were sedimented and hemoglobin concentration in the supernatant determined by absorption spectroscopy. • (7) Platelet count was assessed as part of a complete blood count. Platelet count goes down as platelets adhere and aggregate in the system.
In addition, nitrite was measured to assess the effective dose that a patient may encounter. […] For all experiments, the same blood was used for control and treatment and the same amount of calcium infused at the same timepoints.
The system was tested by comparing treatment to control in terms of patency, platelet count, and platelet activation.
The target in test [2] is T1, partially deoxygenated hemoglobin (Homo sapiens, UniProt P68871+P69905). Conditions: hemoglobin 10 mM (in heme) in blood, pseudo first order.
Procedure: In addition, nitrite was measured to assess the effective dose that a patient may encounter. […] For all experiments, the same blood was used for control and treatment and the same amount of calcium infused at the same timepoints. For the example shown in FIG. 11A, no calcium was infused. […] For the example shown in FIG. 11B, calcium additions was added at the 1.5 hour mark and at each of the next two 0.5 hour intervals (1.5 mM; 0.75 mM; and 0.375 mM).
Test [3] deals with T1, partially deoxygenated hemoglobin. Conditions: cited from earlier work.
The test system of the next test is deoxygenated RBCs. The experiment in a line: Heme nitrosyl export from deoxygenated RBCs incubated with nitrite (tri-iodide chemiluminescence assay). The format is cell-based. The settings on record: with versus without hemopexin.

Like-named read-outs stand apart in the source and are kept apart here.

T1 sequence (P69905 2-142 limits assumed): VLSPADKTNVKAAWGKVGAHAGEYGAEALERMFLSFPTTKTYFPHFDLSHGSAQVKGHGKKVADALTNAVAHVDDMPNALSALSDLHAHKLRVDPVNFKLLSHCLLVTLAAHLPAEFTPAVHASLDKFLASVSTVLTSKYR
T1 sequence (P68871 2-147 limits assumed): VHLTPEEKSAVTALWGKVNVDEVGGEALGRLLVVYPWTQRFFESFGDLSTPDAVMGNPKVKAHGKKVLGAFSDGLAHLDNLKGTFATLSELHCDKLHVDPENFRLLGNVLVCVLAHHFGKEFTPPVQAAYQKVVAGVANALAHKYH
Sequence of oxygenated Hb (OxyHb) (P69905 2-142 limits assumed): as the sequence (P69905 2-142 limits assumed) above
Sequence of oxygenated Hb (OxyHb) (P68871 2-147 limits assumed): as the sequence (P68871 2-147 limits assumed) above

For `CC(=O)N[C@H](C(=O)O)C(C)(C)SN=O` (racemic) [SNAP, S-Nitroso-N-acetylpenicillamine], in the test with platelet activation (RBCs treated with SNAP, excess removed), the “platelet activation with RBCs treated with nitrosating agent, then washed” value is recorded as “caused the RBCs to inhibit platelet activation”. For the same molecule, in the test on platelet activation (RBCs treated, washed, then illuminated), the “effect of light illumination on platelet activation with treated RBCs” value is given as “Light potentiates effects”.
As for `CC1(C)N([O])C(c2ccc(C(=O)O)cc2)=[N+]([O-])C1(C)C` [CPTIO], the “effect on nitrite-mediated inhibition of platelet activation by RBCs” value in the test on platelet activation is reported as “abrogated”.
On the same count and under the same terms, then `O=C(O)c1cc(SSc2ccc([N+](=O)[O-])c(C(=O)O)c2)ccc1[N+](=O)[O-]` [DTNB], with “abrogates inhibition of platelets”.
Consider `CCN1C(=O)C=CC1=O` [NEM, N-ethyl maleimide], for which the “effect on platelet inhibition by SNAP-treated RBCs” value in the test with platelet activation (pre-treatment with thiol binding agent) is reported as “abrogated”.
With `[N]=O` [NO, Nitric oxide], the rate constant at oxygenated Hb (OxyHb) is 6-8×10^7 M^−1s^−1.
Take `O=NO` [nitrite]: the “effect on platelet activation” value in the test with platelet activation (RBCs present, nitrite alone) is recorded as “decreases platelet activation”; in the test on platelet activation (nitrite added to activated platelets, absence of RBCs) it was “has no effect”. Also, in the test on platelet activation (RBCs present, nitrite plus far-red light 660 nm, ~5 min), the “inhibition of platelet activation” value is reported as “dramatically enhances nitrite bioactivation by RBCs”. For the same molecule, the platelet adhesion result with platelet adhesion is “decreases platelet adhesion”. Also, the “rate of clot growth” value in the test on clotting in blood is “decreasing the rate of clot growth”. Further, the “time to initial fibrin formation (R-time)” value in the test with clotting in blood is “increasing the time to initial fibrin formation”. Moreover, the reduction of clotting entry is “universally effective in reducing clotting” in the test on clotting (combination of nitrite and light, all assays); “mixed effects” with clotting (monotherapy). Moreover, the “survival time of treated system longer than control circuit, average” value in [1] (combined nitrite and red light) is on record as 220%. In addition, in [1] (treated system (nitrite plus light), complete blood count, averaged), the “decrease in the number of platelets, first to last sample” value amounted to 32%. In [1] (whole blood, calcium infused, nitrite plus far-red light from the 1.5 hour mark), the “pressure in the circuit” value is “decreased to less than that of the control circuit”. Moreover, in test [2], the “lifetime of the nitrite” value is “about 100 seconds”. Moreover, the bimolecular rate constant in test [3] is 1 M⁻¹ s⁻¹.

B1: hemopexin: a plasma protein with extremely high affinity for free heme (protein, UniProt P02790 24-462, looked up)
Hemopexin: TPLPPTSAHGNVAEGETKPDPDVTERCSDGWSFDATTLDDNGTMLFFKGEFVWKSHKWDRELISERWKNFPSPVDAAFRQGHNSVFLIKGDKVWVYPPEKKEKGYPKLLQDEFPGIPSPLDAAVECHRGECQAEGVLFFQGDREWFWDLATGTMKERSWPAVGNCSSALRWLGRYYCFQGNQFLRFDPVRGEVPPRYPRDVRDYFMPCPGRGHGHRNGTGHGNSTHHGPEYMRCSPHLVLSALTSDNHGATYAFSGTHYWRLDTSRDGWHSWPIAHQWPQGPSAVDAAFSWEEKLYLVQGTQVYVFLTKGGYTLVSGYPKRLEKEVGTPHGIILDSVDAAFICPGSSRLHIMAGRRLWWLDLKSGAQATWTELPWPHEKVDGALCMEKSLGPNSCSANGPGLYLIHGPNLYCYSDVEKLNAAKALPQPQNVTSLLGCTH
In the case of B1, the “NO species in the supernatant” value in the test on deoxygenated RBCs was “significantly greater NO”.
